{
  "source": "patent US20170307610A1",
  "about": "“COMPOUNDS THAT BIND DYSTROGLYCAN AND USES THEREOF” (OREGON HEALTH & SCIENCE UNIVERSITY, priority 2014, published 2017)",
  "assay_type_in_all_cases": "cell-based, mouse",
  "key": {"E3D1 MECs [1]": {"test_system": "E3D1 MECs", "assay": "Steady-state laminin internalization, flow cytometry", "details": "18 hrs; for MFI of steady-state laminin endocytosis in presence of MMP inhibitor: GM6001 50 μM (vehicle 20.2±1.82, n=4), BB2416 5 μM (vehicle 20.85, n=2); for effect of MMP inhibitor on steady-state laminin endocytosis: GM6001 50 μM, BB2416 5 μM", "description": "Endocytic internalization of laminin was confirmed by multiple methods. Laminin was labeled with the pH-sensitive fluorescent label CypHer-5 (CyPher-Ln) to exclusively image internalized laminin in attached, living cells. The fluorophore CypHer-5 is non fluorescent at pH 7.4 and maximally fluorescent at pH 5.5, permitting fluorescence detection of laminin within intracellular acidic vesicles (pH 4.8-6.0). Following overnight incubation of MECs with CypHer-Ln, live cell imaging detected bright fluorescent vesicles moving rapidly within the cytoplasm (FIG. 3A). Intracellular laminin within the cytoplasm was also independently observed via removal of surface bound laminin followed by confocal imaging. MECs were exposed to 10 μg/ml Rhod-Ln for 18 hrs, trypsinized, washed with PBS/EDTA to remove surface-bound laminin, allowed to re-attach, and stained with the membrane marker FITC-concanavalin A (conA). […] This method of cell treatment permitted a quantitative, flow cytometry-based assay of laminin internalization. In this assay, cells incubated with Rhod-Ln were trypsinized, washed (as in FIG. 3B), and the remaining internal Rhod-Ln fluorescence quantified by flow cytometry. Using this assay, laminin internalization was confirmed in diverse cell types including in primary mammary epithelial cultures, mammary epithelial cell lines (E3D1, MEpG), […] fibroblasts (NIH 3T3 cells), primary astrocytes, and human cancer cell lines (breast and glioma).\n(§1) To explore the dynamics of laminin internalization, steady-state time course experiments (measuring internalization in the continuous presence of labeled laminin) and pulsed time course experiments were performed. In pulsed time course experiments, the cells were exposed to exogenous Rhod-Ln at 4° C. to prevent internalization, excess unbound Rhod-Ln was washed away, and then cells were returned to 37° C. to allow synchronized internalization and trafficking to proceed. […] Following pulsed and synchronized laminin exposure, Rhod-Ln was again observed to internalize within 1 hour, but reached a maximum at 8 hours, after which the levels of internal laminin declined (FIG. 4A). After 24 hours, internal Rhod-Ln levels declined to ˜37% of the maxima, indicating degradation (MFI: 315±3.5 to 119±11.5). To determine if laminin was degraded using classical degradation pathways, pulsed time course experiments in the presence of leupeptin (lysosome inhibitor) or […] (proteasome inhibitor) were performed.\nLaminin internalization could be mediated by either receptor-dependent or receptor independent mechanisms (e.g. pinocytosis). Steady-state laminin internalization was measured using flow cytometry in the presence of potential inhibitors and compared to internalization of 500S FITC-dextran, a molecule of similar molecular size to laminin known to be endocytosed by receptor-independent mechanisms. The specific inhibitor of dynamin, dynasore (Macia E et al, Dev Cell, 839-850 (2006); incorporated by reference herein), inhibited internalization of laminin by >75% (FIG. 6A). Under hypertonic sucrose, a condition known to inhibit receptor-mediated endocytosis (Heuser J E and Anderson R G, J Cell Biol 108, 389-400 (1989); incorporated by reference herein) laminin internalization was reduced by 65% (FIG. 6A). Addition of heparin, a molecule known to bind the laminin LG4-5 domain (Harrison D et al, J Biol Chem 282, 11573-11581 (2007); incorporated by reference herein), decreased laminin internalization by 69% relative to controls (FIG. 6A). […] Specifically, under steady state, laminin internalization was nearly linear throughout the 24 hour time course, whereas dextran internalization plateaued after 16 hrs.\nFlow Cytometry—Cells were plated in 12 well plates at 200,000 cells/well. The following day, media was changed to serum-free media with or without 10 μg/ml rhodamine laminin or 40 μg/ml FITC-dextran (500S-Sigma-Aldrich Corp., St. Louis, Mo., USA). […]"}, "E3D1 MECs [2]": {"test_system": "E3D1 MECs", "assay": "FITC-dextran (500S) internalization, flow cytometry", "details": "steady state, 24 hour time course", "description": "Laminin internalization could be mediated by either receptor-dependent or receptor independent mechanisms (e.g. pinocytosis). Steady-state laminin internalization was measured using flow cytometry in the presence of potential inhibitors and compared to internalization of 500S FITC-dextran, a molecule of similar molecular size to laminin known to be endocytosed by receptor-independent mechanisms. The specific inhibitor of dynamin, dynasore (Macia E et al, Dev Cell, 839-850 (2006); incorporated by reference herein), inhibited internalization of laminin by >75% (FIG. 6A). Under hypertonic sucrose, a condition known to inhibit receptor-mediated endocytosis (Heuser J E and Anderson R G, J Cell Biol 108, 389-400 (1989); incorporated by reference herein) laminin internalization was reduced by 65% (FIG. 6A). Addition of heparin, a molecule known to bind the laminin LG4-5 domain (Harrison D et al, J Biol Chem 282, 11573-11581 (2007); incorporated by reference herein), decreased laminin internalization by 69% relative to controls (FIG. 6A). […]\nFlow Cytometry—Cells were plated in 12 well plates at 200,000 cells/well. […] Using a BD FACScan flow cytometer (BD Biosciences, San Jose, Calif., USA), 10,000 cells/well were counted, background fluorescence from the cell counts with no added laminin subtracted and the mean fluorescence intensity values reported. […]"}, "E3D1 MECs [3]": {"test_system": "E3D1 MECs", "assay": "Pulsed time course of Rhod-Ln internalization, flow cytometry", "details": "pulsed, 24 hrs post laminin labeling, n=4; for MFI of internal Rhod-Ln in presence of inhibitor: vehicle 105.5±3", "description": "as §1\nLaminin labeling—Laminin-111 (1 mg) (Sigma-Aldrich Corp., St. Louis, Mo., USA) was dialyzed twice overnight against 500 ml of PBS with 10 μM CaCl2. The dialyzed laminin was then reacted with 10 μg NHS-rhodamine, or a 50 fold molar excess of NHS409 CypHer5 (GE) for 2 hr on ice, followed by dialysis twice overnight against 500 ml of PBS with 10 μM CaCl2.\nFlow Cytometry—Cells were plated in 12 well plates at 200,000 cells/well. The following day, media was changed to serum-free media with or without 10 μg/ml rhodamine laminin or 40 μg/ml FITC-dextran (500S-Sigma-Aldrich Corp., St. Louis, Mo., USA). Unless otherwise indicated, cells were incubated 18-24 hrs, washed once with PBS, and cells trypsinized. Cells were washed in 5 ml cold PBS/1 mM EDTA, pelleted, and resuspended in 1 ml PBS/1 mM EDTA. Using a BD FACScan flow cytometer (BD Biosciences, San Jose, Calif., USA), 10,000 cells/well were counted, background fluorescence from the cell counts with no added laminin subtracted and the mean fluorescence intensity values reported. Graphed data are compiled from duplicate wells from each experiment with a minimum of three separate experiments, unless indicated otherwise."}, "[4]": {"details": "Mus musculus, steady-state, 10 μg/ml Rhod-Ln, 40 μM dynasore, 320 mM sucrose, 100 μg/ml heparin"}},
  "note": "Peptide text beside a SMILES is read from it. * marks the point of attachment. Cbz = O=C(OCc1ccccc1)*",
  "data": [
    {"compound": "CNC(=O)[C@@H](NC(=O)[C@H](CC(C)C)[C@H](O)C(=O)NO)C(C)(C)C", "note": "[BB2416]", "values": [
      {"measurement": "MFI of steady-state laminin endocytosis in presence of MMP inhibitor", "setting": "E3D1 MECs [1]", "value": 20.46},
      {"measurement": "effect of MMP inhibitor on steady-state laminin endocytosis", "setting": "E3D1 MECs [1]", "value": "no significant effect"}
    ]},
    {"compound": "OC[C@H]1O[C@@](CO)(O[C@H]2O[C@H](CO)[C@@H](O)[C@H](O)[C@H]2O)[C@@H](O)[C@@H]1O", "note": "[sucrose]", "values": [
      {"measurement": "inhibition at 320000 µM", "setting": "E3D1 MECs [1]; [4]", "value": 65, "unit": "%"}
    ]},
    {"compound": "FITC-dextran", "values": [
      {"measurement": "time to plateau of dextran internalization", "setting": "E3D1 MECs [2]", "value": "> 16", "unit": "h"}
    ]},
    {"compound": "heparin", "values": [
      {"measurement": "inhibition of laminin internalization", "setting": "E3D1 MECs [1]; steady-state, 10 μg/ml Rhod-Ln, 40 μM dynasore, 320 mM sucrose, 100 μg/ml heparin", "value": 69, "unit": "%"}
    ]},
    {"compound": "CC(C)C[C@@H](C=O)NC(=O)[C@H](CC(C)C)NC(=O)[C@H](CC(C)C)NC(=O)OCc1ccccc1", "note": "[MG-231] (Cbz-Leu-Leu-Leu-aldehyde)", "values": [
      {"measurement": "increase in internal Rhod-Ln compared to vehicle controls", "setting": "E3D1 MECs [3]", "value": 59, "unit": "%"},
      {"measurement": "MFI of internal Rhod-Ln in presence of inhibitor", "setting": "E3D1 MECs [3]", "value": "167.5±7"}
    ]},
    {"compound": "CC(=O)N[C@@H](CC(C)C)C(=O)N[C@@H](CC(C)C)C(=O)N[C@H](C=O)CCCNC(=N)N", "note": "[leupeptin]", "values": [
      {"measurement": "increase in internal Rhod-Ln compared to vehicle controls", "setting": "E3D1 MECs [3]", "value": 153, "unit": "%"},
      {"measurement": "MFI of internal Rhod-Ln in presence of inhibitor", "setting": "E3D1 MECs [3]", "value": "266±11.2"}
    ]},
    {"compound": "CNC(=O)[C@H](Cc1c[nH]c2ccccc12)NC(=O)[C@@H](CC(=O)NO)CC(C)C", "note": "[GM6001]", "values": [
      {"measurement": "MFI of steady-state laminin endocytosis in presence of MMP inhibitor", "setting": "E3D1 MECs [1]", "value": "18.62±1"},
      {"measurement": "effect of MMP inhibitor on steady-state laminin endocytosis", "setting": "E3D1 MECs [1]", "value": "no significant effect"}
    ]},
    {"compound": "O=C(N/N=C/c1ccc(O)c(O)c1)c1cc2ccccc2cc1O", "note": "[dynasore]", "values": [
      {"measurement": "inhibition at 40 µM", "setting": "E3D1 MECs [1]; [4]", "value": "> 75", "unit": "%"}
    ]}
  ]
}
